Values quoted from earlier work as cited in patent US20250283018A1, “TOILET RIM BLOCKS WITH SCENT CHANGE” (SYMRISE AG, priority 2021, published 2025).
Where two headings read alike, the source gives them in different places.

What was measured:
[1] = not given; remark: listed apart in the source
[2] = Table 3, components of POWER PLATIN

Row | Molecule | Bp. [° C.] (Table 1, components of MARINA) [°C] | logP ([1]; Table 1, components of MARINA) | Bp. [° C.] (list of selected fragrances) [°C] | logP ([1]; list of selected fragrances) | Bp. [° C.] [2] [°C] | logP [1, 2] | also measured
1 | CCCCCCCCC=O [ALDEHYD C 9] | 191 | 3.27 | – | – | – | – | –
2 | CC/C=C/CCOC(=O)c1ccccc1O [HEXENYLSALICYLAT CIS-3] | – | – | 301 | 4.5 | – | – | –
3 | CCCCCCCCCCO [ALKOHOL C10] | 231.1 | 3.79 | – | – | – | – | –
4 | CCCCCCC1CCC(=O)O1 (stereo not drawn) [GAMA DECALACTONE] | – | – | 266 | 2.36 | – | – | Bp. [° C.] (Table 2, components of PEACH): 266 °C; logP ([1]; Table 2, components of PEACH): 2.57
5 | CCCC1(C)OC2CC34CC(C(C)(C)C3CCC4C)C2(C)O1 (stereo not drawn) | – | – | 336 | 5.94 | – | – | –
6 | COC(OC)C(C)(C)CC=C(C)C [AMAROCIT ®] | – | – | – | – | 203 | 3.39 | –
7 | CCCCCCCCCCC=O [ALDEHYD C11 UNDECANAL] | 223 | 4.25 | – | – | – | – | –
8 | C=C(C)C1CC=C(C)C(OC(C)=O)C1 (stereo not drawn) [ACETIC ACID CARVYL ESTER] | – | – | 92 | 4.26 | – | – | –
9 | c1ccc(Oc2ccccc2)cc1 [DIPHENYLOXID] | 258 | 4.05 | – | – | 258 | 4.05 | –
10 | C=CC(C)CCCC(C)(C)O (stereo not drawn) [DIHYDROMYRCENOL] | 194 | 3.47 | – | – | 194 | 3.47 | –
11 | O=C1CCCCCCCCCCCC(=O)OCCO1 [ETHYLENBRASSYLAT] | 382 | 4.71 | – | – | – | – | –
12 | CCCCCCCCCC(C)C=O (stereo not drawn) [ALDEHYD C12 MNA] | – | – | – | – | 171 | 4.67 | –
13 | CC(C)=CCCC1=CCC(C)(C=O)CC1 (stereo not drawn) [PRECYCLEMONE B] | 267 | 5.19 | – | – | 267 | 5.19 | –
14 | CC1CCC(C(C)(C)S)C(=O)C1 (stereo not drawn) [THIOMENTHANON-8,3] | – | – | – | – | – | – | Bp. [° C.] (Table 2, components of PEACH): 271 °C; logP ([1]; Table 2, components of PEACH): 2.78
15 | O=C(OCc1ccccc1)c1ccccc1O [BENZYLSALICYLAT] | – | – | 325 | 4.06 | – | – | –
16 | CC1=CCC(C=CC(C)C(C)O)C1(C)C (stereo in doubt) [EBANOL] | – | – | – | – | 274 | 4.93 | –
17 | CCCCCC1CCCC(=O)O1 (stereo not drawn) [DECALACTON DELTA] | – | – | – | – | – | – | Bp. [° C.] (Table 2, components of PEACH): 267 °C; logP ([1]; Table 2, components of PEACH): 2.57
18 | Cc1ccc2c(c1)OCC(=O)CO2 [CALONE] | 289 | 2.43 | – | – | 289 | 2.43 | –
19 | CCC(=CCC1CC=C(C)C1(C)C)CO (stereo not drawn) [ETHYL TRIMETHYLCYCLOPENTENE BUTENOL] | – | – | 276 | 4.63 | – | – | –
20 | CCCCCCCCCC(C)=O [UNDECANON-2] | – | – | – | – | 231.5 | 3.69 | –

Row | Molecule | Bp. [° C.] (Table 1, components of MARINA) [°C] | logP ([1]; Table 1, components of MARINA) | Bp. [° C.] (list of selected fragrances) [°C] | logP ([1]; list of selected fragrances) | Bp. [° C.] [2] [°C] | logP [1, 2] | also measured
21 | CC1(C)C2CC=C(CCC=O)C1C2 (stereo not drawn) [PINOACETALDEHYD] | 242 | 3.76 | – | – | – | – | –
22 | O=C1CCCCCCCCCCCCCCC1 [8-CYCLOHEXADECANONE, 8-cyclohexadecanone] | – | – | 323 | 5.97 | – | – | Bp. [° C.] (Table 2, components of PEACH): 323 °C; logP ([1]; Table 2, components of PEACH): 5.82
23 | COC1CC2CC1C1CC(C=O)CC21 (stereo not drawn) [SCENTENAL] | 273 | 2.03 | – | – | – | – | –
24 | CC(C)=CCCC(C)CC#N (stereo not drawn) | 235 | 3.55 | – | – | – | – | –
25 | CARYOPHYLLENACETAT | 306 | 5.75 | 306 | 5.52 | – | – | Bp. [° C.] (Table 2, components of PEACH): 306 °C; logP ([1]; Table 2, components of PEACH): 5.75
26 | CCCCCCCCCCCCCCCCCC=O [OCTADECANAL] | – | – | 250 | 1.83 | – | – | –
27 | CCCCCCCCCCCC=O [ALDEHYD C12 LAURIN] | 249 | 4.75 | – | – | – | – | –
28 | HERBYLPROPIONAT | 276.15 | 3.68 | 276.15 | 2.89 | – | – | –
29 | CCC(C)=CCCC(C)=CC#N [LEMONILE] | – | – | – | – | 249 | 3.96 | –
30 | c1ccc2[nH]ccc2c1 [INDOL FF] | – | – | – | – | 254 | 2.05 | Bp. [° C.] (Table 2, components of PEACH): 254 °C; logP ([1]; Table 2, components of PEACH): 2.05
31 | Cc1ccc2c(c1)OCC(=O)CO2 [METHYLBENZODIOXEPINON] | – | – | 289 | 1.8 | – | – | –
32 | ISOBUTYLMENTHONE | 211 | 2.94 | – | – | – | – | –
33 | CC1CC(C)(c2ccccc2)OC(C)O1 (stereo not drawn) | – | – | 279.2 | 2.79 | – | – | –
34 | CCCCCC1(C)CCC(C)(C)C1=O (stereo not drawn) [VELOUTONE] | – | – | – | – | – | – | Bp. [° C.] (Table 2, components of PEACH): 247 °C; logP ([1]; Table 2, components of PEACH): 4.34
35 | CCc1occc(=O)c1O [ETHYLMALTOL] | – | – | – | – | 290 | 0.3 | –
36 | O=Cc1ccc2c(c1)OCO2 [HELIOTROPIN/PIPERONAL] | – | – | 263 | 1.35 | – | – | –
37 | CC(=O)OCCC(C)C [ISOAMYLACETAT] | – | – | – | – | – | – | Bp. [° C.] (Table 2, components of PEACH): 143 °C; logP ([1]; Table 2, components of PEACH): 2.26
38 | 3-METHYLBUTYL-CYCLOHEXANOL | – | – | 245 | 4.49 | – | – | –
39 | COC(=O)c1ccccc1N [[…]] | 256 | – | 256 | 2.12 | 256 | – | –
40 | C=C1CC/C=C(/C)CC[C@@H]2[C@@H]1CC2(C)C [CARYOPHYLLEN NAT. REKT.] | – | – | – | – | 251 | 6.3 | –
